{
  "source": "patent US8630703B2",
  "about": "“Treatment utilizing hydrophobic weak bases chemotherapeutic agents and illumination” (Technion Research & Development Foundation Limited, priority 2011, dated 2014)",
  "key": {"[1]": {"system": "A549/K1.5 cells", "assay": "Live cell fluorescent imaging (lysosomal localization and photodestruction)", "assay_type": "cell-based, Human", "conditions": "for effect on lysosomal accumulation of C-1330: pre-incubation 10 mM ammonium chloride 30 min or 1 μM bafilomycin A1 60 min", "procedure": "(§1) Lysosomes and mitochondria were stained by incubating the cells 100 nM LysoTracker® Red or 100 nM MitoTracker® Red, respectively, for 1 hour. For subcellular localization of C-1330, cells were also stained with 10 μM C-1330 for 30 minutes.\n(§2) Nuclear staining was performed prior to fluorescence imaging by replacing the growth medium with medium containing 2 μg/ml Hoechst 33342, followed by incubation for 10 minutes. Prior to nuclear staining, A549/K1.5 cells were incubated for 1 hour with 10 μM fumitremorgin C (FTC) to prevent efflux of Hoechst 33342 by ABCG2.\n(§3) Live cell fluorescent imaging was performed using an Axiovert 200 inverted fluorescence microscope (Carl Zeiss) equipped with a digital camera. […] Light intensity was maintained at 12.5% of the maximum. The magnification used was ×630.\n(§4) Cells were pre-incubated with 10 mM ammonium chloride for 30 minutes or with 1 μM bafilomycin A1 for 60 minutes, prior to being incubated with 10 μM C-1330 for 30 minutes as described hereinabove. Ammonium chloride and bafilomycin A1 remained present during the incubation with C-1330.\nA549/K1.5 cells were incubated with 10 μM doxorubicin for 30 minutes, and then observed and illuminated (at 470 nm) by live cell fluorescent imaging as described in the Materials and Methods section. Upon illumination, the cells were photographed every second, in order to observe changes in the cells over time."}, "[2]": {"system": "A549/K1.5 cells", "assay": "XTT cytotoxicity assay with and without illumination", "assay_type": "cell-based, Human", "conditions": "A549/K1.5", "quoted_text": "Human non-small cell lung cancer A549 cells and their ABCG2-overexpressing MDR (multi-drug resistant) A549/K1.5 sub-line; ovarian carcinoma cell line 2008 and its stable MRP1-transfectant 2008/MRP1; and human non-small lung cancer cell line SW1573 and its ABCB1-overexpressing subline SW1573/2R160) were maintained in RPMI-1640 medium supplemented with 10% fetal bovine serum, 2 mM glutamine, 100 μg/ml penicillin and streptomycin (Biological Industries, Beth-Haemek, Israel) in a humid atmosphere containing 5% CO2 at 37° C.\n(§5) Parental cells and their MDR (multi-drug resistant) sub-lines were seeded in 96-well plates (2×10^4 cells/well in 90 μl growth medium/well). […] Following incubation for 2 hours, the drug-containing medium was replaced by drug-free medium. The cells were then placed on an illuminator plate (Model 460, thin line series, S&S X-Ray Products Inc., Brooklyn, N.Y.) for 1 hour, thereby achieving a light dose of 5 J/cm^2 white light. After illumination, plates were further incubated for an additional 24 hours.\nCell viability was determined using an XTT (2,3-bis-(2-methoxy-4-nitro-5-sulfophenyl)-2H-tetrazolium-5-carboxanilide) Cell Proliferation Kit (Biological Industries). The drug concentrations required to inhibit cell growth by 50% (i.e., IC50 values) were determined from the cell survival curves in the absence and in the presence of illumination. Results are presented as mean values of at least three independent experiments."}, "[3]": {"assay": "Absorption, emission and excitation spectra", "assay_type": "physicochemical", "conditions": "aqueous 0.9% NaCl", "procedure": "Stock solutions containing sunitinib or the imidazoacridinones (IAs) C-1375 and C-1379 in 100% dimethyl sulfoxide were diluted with aqueous 0.9% NaCl solution under continuous stirring. Absorption spectra were recorded with a two-beam Cary 500 UV-VIS-NIR spectrophotometer (Varian) in 1 cm long Suprasil® quartz cuvettes (Hellma), at an average scan speed of 600 nm/minute, at 20° C. The steady state emission and excitation spectra were recorded with an LS 50B luminescence spectrometer (Perkin-Elmer)."}, "[4]": {"system": "chicken chorioallantoic membrane (CAM) vasculature", "assay": "Chorioallantoic membrane (CAM) model of photodynamic therapy", "assay_type": "in vivo", "conditions": "for vascular effect in illuminated area: 420 nm", "procedure": "Fertilized chicken eggs (Animalco AG) were labeled and transferred into a hatching incubator with a relative air humidity of 65% and a temperature of 37° C. The incubator was equipped with an automatic fan (Savimat). On embryonic development day (EDD) 3, a hole of approximately 3 mm in diameter was opened in the eggshell above the air pouch of the egg and covered with Parafilm® wrapping film (Pechiney) to prevent dehydration and possible infections. The eggs were then returned to the incubator in a static position until use. On EDD 11, the hole in the shell was extended to a diameter of approximately 3 cm in order to provide better access to the chorioallantoic membrane (CAM) during experiments.\nEggs were placed under an Eclipse 600 FN epi-fluorescence microscope equipped with a Plan Apo 4/0.2, working distance 20 objective (Nikon). Microscopic observation and illumination of a region of the CAM was performed as described previously [Lim et al., Photochem Photobiol 2010, 86:397-402; Lim et al., J Med Chem 2010, 53:2865-2874; Nowak-Sliwinska et al., Angiogenesis 2010, 13:281-292]. Illumination was provided by a 100 W high pressure Hg-arc lamp. Light doses were adjusted with neutral density filters and measured with a calibrated Field-Master GS power meter (Coherent Inc.). Fluorescence images were acquired with an F-view II 12-bit monochrome Peltier-cooled digital CCD camera driven with analySIS DOCU software (Soft Imaging System GmbH).\nFor excitation and detection of imidazoacridinones (IAs) or sunitinib, the microscope was equipped with a filter set (Nikon) characterized by excitation wavelengths of 420±20 nm and emission wavelengths of >470 nm,\nAfter the treatment the eggs were numbered, covered and returned to the incubator. Each treatment group included 5 eggs.\nChorioallantoic membranes (CAMs) were intravenously injecting chorioallantoic membranes with 20 μl of a solution of FITC-dextran (20 kDa, 25 mg/ml). Fluorescence angiography was then performed using light from an Hg-arc lamp and light filters (Nikon) which provided excitation wavelengths of 470±20 nm and emission wavelengths of >520 nm for observing the fluorescence. In order to increase the quality of the recorded angiographs, a light absorber, in the form of India ink, was injected (30 μl) into the extra-embryonic cavity. The purpose of this second injection was to decrease the influence of the CAM auto-fluorescence background, which changes rapidly with time due to the embryo's movement. The India ink was filtered shortly before injection, using a sterile cellulose acetate membrane with 0.2 μm pores (Renner GmbH).\nPhotodynamic therapy (PDT) was performed at embryo development day (EDD) 11, at which stage the CAM is fully developed and contains a vessel network with a regular capillary plexus. The imidazoacridinones were intravenously injected into the main vessel of the CAM through a 33-gauge needle fitted to a 100 μl syringe (Hamilton), at a concentration of 1 mg/ml and a volume of 100 μl, which corresponds to a dose of 100 μg, or approximately 10 mg/kg embryo body weight.\nOne minute after injection, a region of the CAM which contained vessels of diameters in a range of 5 to 70 μm was illuminated (420±20 nm) at a light dose of 20 J/cm^2 and an irradiance of […]. […]\nThe illuminated area was 0.02 cm^2, as delimited by an optical diaphragm. The fluorescence of sunitinib was visible in the vasculature of the CAMs prior to PDT."}, "[5]": {"system": "Human A2780 ovarian carcinoma tumors", "assay": "PDT of tumors transplanted onto CAM", "assay_type": "in vivo", "conditions": "12 μg per embryo i.v., 420 nm 34 J/cm^2, two rounds; vs C-1379 without illumination", "procedure": "Human A2780 ovarian carcinoma cells were used to establish tumor xenografts in the CAM. Tumor spheroids were grown by a hanging drop technique, resulting in spheroids with a predefined size. A2780 cells were suspended in medium containing 20% Methocel™ (Sigma-Aldrich, St. Louis, USA), and 50 μl drops (1×10^6 cells/drop) were dispensed on the internal part of the lid of a Petri dish. After 24 hours, spheroids were harvested and placed on the CAM at embryonic development day (EDD) 7. Two transplanted human A2780 ovarian carcinoma tumor spheroids, containing 10^6 cells, were grown on a single CAM, and 300 μM C-1379 was injected intravenously at a concentration of 12 μg per embryo at EDD 11.\nPrior to further treatment, both tumors were imaged by imidazoacridinone (C-1379) fluorescence angiography, as described hereinabove. One minute after C-1379 administration, one of the tumors was illuminated at a wavelength of 420 nm (34 J/cm^2, 70 mW/cm^2). 24 hours later, both tumors were visualized by FITC-dextran angiography, as described hereinabove, and by standard photography. Immediately thereafter, a second round of C-1379 intravenous administration and PDT (on one of the tumors) was performed as previously. The CAM was then incubated for two more days. […]"}, "[6]": {"system": "A549 cells", "assay": "XTT cytotoxicity assay with and without illumination", "quoted_text": "as §5\nCell viability was determined using an XTT (2,3-bis-(2-methoxy-4-nitro-5-sulfophenyl)-2H-tetrazolium-5-carboxanilide) Cell Proliferation Kit (Biological Industries). […] Results are presented as mean values of at least three independent experiments."}, "[7]": {"system": "A549 cells", "assay": "Live cell fluorescent imaging (lysosomal localization and photodestruction)", "assay_type": "cell-based, Human", "conditions": "pre-incubation 10 mM ammonium chloride 30 min or 1 μM bafilomycin A1 60 min", "procedure": "as §1, §2, §3, §4\nMonolayers of A549 cells were grown in glass-bottom plates and were washed in growth medium. The medium was then replaced with a special isotonic balanced salt solution lacking or containing either N,N′-dimethylthiourea (DMTU), a potent hydroxyl radical and hydrogen peroxide scavenger, L-histidine, a hydroxyl radical and singlet oxygen radical (^1O2) scavenger, or sodium azide, a singlet oxygen radical scavenger. The salt solution consisted of 10 mM HEPES pH 7.4, 120 mM NaCl, 5 mM KCl, 1 mM CaCl2, 1 mM MgCl2, and 25 mM glucose. After incubation for 1 hour, C-1330 was added to the aforementioned solution buffer for an additional 30 minutes, during which the scavengers remained present, in order to load lysosomes. The cells were then examined by fluorescent imaging as described hereinabove."}, "[8]": {"system": "A549 cells", "assay": "Lysosome quantification by LysoTracker Red fluorescence", "assay_type": "cell-based, Human", "conditions": "for increase in lysosomal fluorescence compared to untreated cells: 20 μM", "procedure": "A549 cells were seeded in 96-well plates at a concentration of 500 cells/well for the 48 hour chloroquine treatment, or at a concentration of 1000 cells/well for the 24 hour chloroquine treatment, in a total volume of 100 μl of medium per well. Following an overnight incubation, chloroquine was then added at the indicated concentrations for 24 or 48 hours. Lysosomes were then stained with LysoTracker® Red, detected by fluorescent imaging as described hereinabove, and quantified using EZQuant software."}},
  "data": [
    {"smiles": "CCN(CC)CCNc1ccc2ncn3c4ccc(O)cc4c(=O)c1c23", "note": "[C-1311]", "values": [
      {"measurement": "lysosomal photodestruction on co-treatment with ABCG2 inhibitor", "setting": "[1]; MDR cells, 20 μM C-1311 + 10 μM fumitremorgin C, 2 hours, illumination", "result": "intense lysosomal photodestruction"}
    ]},
    {"smiles": "CCN(CC)CCCNc1ccc2nc(C)n3c4ccc(OC)cc4c(=O)c1c23", "note": "[C-1379]", "values": [
      {"measurement": "Fold sensitization", "setting": "[2]; control vs illumination", "result": 20},
      {"measurement": "LD50 Control", "setting": "[2]; no illumination", "result": "15.192 ± 0.58", "unit": "µM"},
      {"measurement": "Survival at 3000 nM Control", "setting": "[2]; no illumination", "result": "82 ± 4", "unit": "%"},
      {"measurement": "LD50 Illumination", "setting": "[2]; white light 1 hour (5 J/cm^2)", "result": "747 ± 45", "unit": "nM"},
      {"measurement": "Survival at 3000 nM Illumination", "setting": "[2]; white light illumination", "result": "7 ± 0.1", "unit": "%"},
      {"measurement": "Peak absorption", "setting": "[3]", "result": 443, "unit": "nm"},
      {"measurement": "Peak emission", "setting": "[3]", "result": 554, "unit": "nm"},
      {"measurement": "Peak excitation", "setting": "[3]", "result": 447, "unit": "nm"},
      {"measurement": "vascular effect in illuminated area", "setting": "[4]; 1 μg/embryo i.v., 20 J/cm^2, 24 hours after illumination", "result": "massive occlusion of the capillary network"},
      {"measurement": "vascular effect in illuminated area", "setting": "[4]; 100 μg/embryo i.v., 20 J/cm^2, 1 minute after injection, 24 hours after treatment", "result": "vaso-occlusion within the illuminated area"},
      {"measurement": "effect on tumor growth", "setting": "[5]", "result": "inhibition of tumor growth"},
      {"measurement": "effect on tumor vasculature", "setting": "[5]", "result": "vaso-occlusion and destruction of tumor vasculature"},
      {"measurement": "Fold sensitization", "setting": "[6]; control vs illumination", "result": 32},
      {"measurement": "Survival at 3000 nM Control", "setting": "[6]; no illumination", "result": "60 ± 1", "unit": "%"},
      {"measurement": "LD50 Control", "setting": "[6]; no illumination, 2 h drug, XTT 24 h later", "result": "6.349 ± 0.867", "unit": "µM"},
      {"measurement": "LD50 Illumination", "setting": "[6]; white light 1 hour (5 J/cm^2)", "result": "199 ± 31", "unit": "nM"},
      {"measurement": "Survival at 3000 nM Illumination", "setting": "[6]; white light illumination", "result": "2 ± 0.3", "unit": "%"}
    ]},
    {"smiles": "Cl.N", "note": "[ammonium chloride]", "values": [
      {"measurement": "effect on lysosomal accumulation of C-1330", "setting": "[7]", "result": "completely abolished"},
      {"measurement": "effect on lysosomal accumulation of C-1330", "setting": "[1]; A549/K1.5", "result": "completely abolished"}
    ]},
    {"smiles": "CO/C1=C\\C(C)=C\\[C@@H](C)[C@@H](O)[C@@H](C)C/C(C)=C/C=C/[C@H](OC)[C@@H]([C@@H](C)[C@@H](O)[C@H](C)[C@@]2(O)C[C@@H](O)[C@H](C)[C@@H](C(C)C)O2)OC1=O", "note": "[bafilomycin A1]", "values": [
      {"measurement": "effect on lysosomal accumulation of C-1330", "setting": "[7]", "result": "completely abolished"},
      {"measurement": "effect on lysosomal accumulation of C-1330", "setting": "[1]; A549/K1.5", "result": "completely abolished"}
    ]},
    {"smiles": "CCN(CC)CCCC(C)Nc1ccnc2cc(Cl)ccc12", "note": "(stereo not shown) [chloroquine]", "values": [
      {"measurement": "increase in lysosomal fluorescence compared to untreated cells", "setting": "[8]; 24 hours", "result": 8.4, "unit": "fold"},
      {"measurement": "increase in lysosomal fluorescence compared to untreated cells", "setting": "[8]; 48 hours", "result": 21.7, "unit": "fold"},
      {"measurement": "increase in the lysosomes, dose relation", "setting": "[8]; 20, 50 or 100 μM, 24 hours", "result": "dose-dependent"}
    ]},
    {"smiles": "COc1cccc2c1C(=O)c1c(O)c3c(c(O)c1C2=O)C[C@@](O)(C(=O)CO)C[C@@H]3O[C@H]1C[C@H](N)[C@H](O)[C@H](C)O1", "note": "[doxorubicin]", "values": [
      {"measurement": "lysosomal photodestruction upon illumination", "setting": "[1]; A549/K1.5, 10 μM, 470 nm, 20 seconds of illumination", "result": "nearly all of the lysosomes had ruptured"}
    ]},
    {"smiles": "CCN(CC)CCNC(=O)c1c(C)[nH]c(/C=C2\\C(=O)Nc3ccc(F)cc32)c1C", "note": "[sunitinib, reference compound]", "values": [
      {"measurement": "location of drug fluorescence in CAM", "setting": "[4]; administered intravenously", "result": "visible within the vasculature"},
      {"measurement": "location of drug fluorescence in CAM", "setting": "[4]; administered topically", "result": "visible exclusively outside the vasculature"}
    ]}
  ]
}
